Experimental data from PMC8087795 (2021).

What was measured:
[1] = tested on: oligoribonucleotide 4 (biotinylated FRET-pair truncated pre-miR-21) (RNA, miRNA, tC^O (cytosine analogue, donor) at 15; tCnitro (cytosine analogue, acceptor) at 24) CCGACUGAUGUUGACUGUUGAAUCUCAUGGCAACACCAGUCGG; assay: SPR steady state; details: 80 mM NaCl, 100 mM total Na+; 20 mM sodium cacodylate, pH 7.2; equivalent affinity for all sites; per site
[2] = tested on: oligoribonucleotide 3 (biotinylated truncated pre-miR-21) (RNA, miRNA) CCGACUGAUGUUGACUGUUGAAUCUCAUGGCAACACCAGUCGG; assay: SPR steady state; details: 80 mM NaCl, 100 mM total Na+; 20 mM sodium cacodylate, pH 7.2; equivalent affinity for all sites; per site
[3] = tested on: oligoribonucleotide 7 (stem FRET-labelled truncated pre-miR-21) (RNA, miRNA, tC^O (cytosine analogue, donor) at 15; tCnitro (cytosine analogue, acceptor) at 37) CCGACUGAUGUUGACUGUUGAAUCUCAUGGCAACACCAGUCGG; assay: interbase-FRET, change in FRET efficiency; details: 80 mM NaCl, 100 mM total Na+; 20 mM sodium cacodylate, pH 7.2; 1 µM RNA, 15 µM compound; single concentration, not a constant
[4] = tested on: oligoribonucleotide 5 (hairpin loop FRET-labelled truncated pre-miR-21) (RNA, miRNA, tC^O (cytosine analogue, donor) at 24; tCnitro (cytosine analogue, acceptor) at 31) CCGACUGAUGUUGACUGUUGAAUCUCAUGGCAACACCAGUCGG; assay: interbase-FRET, change in FRET efficiency; details: 80 mM NaCl, 100 mM total Na+; 20 mM sodium cacodylate, pH 7.2; 1 µM RNA, 15 µM compound; single concentration, not a constant
[5] = tested on: oligoribonucleotide 2 (truncated pre-miR-21, 43 nt) (RNA, miRNA) CCGACUGAUGUUGACUGUUGAAUCUCAUGGCAACACCAGUCGG; assay: ITC; details: 80 mM NaCl, 100 mM total Na+; 20 mM sodium cacodylate, pH 7.2, 25 °C; 10 µM RNA; 1:1 fit

Kd [1] [µM]	Kd [2] [µM]	ΔFRET15µM [3]	ΔFRET15µM [4]	Kd [5] [µM]	Structure (SMILES)
27 ± 34	28 ± 35	–	–	–	CCN[C@@H]1C[C@H](N)[C@@H](O[C@H]2OC(CN)=CC[C@H]2N)[C@H](O)[C@H]1O[C@H]1OC[C@](C)(O)[C@H](NC)[C@H]1O
4 ± 2	4 ± 2	0.041	0.023	–	CN[C@@H]1[C@@H](O)[C@@H](O[C@@H]2[C@@H](O)[C@H](O[C@H]3OC(CN)=CC[C@H]3N)[C@@H](N)C[C@H]2N)OC[C@]1(C)O
94 ± 57	101 ± 44	–	–	–	CN[C@@H]1[C@@H](O)[C@@H](O[C@@H]2[C@@H](O)[C@H](O[C@H]3O[C@H]([C@@H](C)O)[C@@H](O)[C@H](O)[C@H]3N)[C@@H](N)C[C@H]2N)OC[C@]1(C)O
115 ± 80	134 ± 76	0.008	0.004	–	CN[C@@H]1[C@H](O[C@H]2[C@H](O[C@H]3[C@H](O)[C@@H](O)[C@H](N=C(N)N)[C@@H](O)[C@@H]3N=C(N)N)O[C@@H](C)[C@]2(O)C=O)O[C@@H](CO)[C@H](O)[C@H]1O
8 ± 5	8 ± 4	0.049	0.024	–	NC[C@H]1O[C@H](O[C@H]2[C@H](O)[C@@H](O[C@H]3O[C@H](CO)[C@@H](O)[C@H](N)[C@H]3O)[C@H](N)C[C@@H]2N)[C@H](N)C[C@@H]1O

More lines, now with the values behind:

Structure (SMILES)	Kd [1] [µM]	Kd [2] [µM]	ΔFRET15µM [3]	ΔFRET15µM [4]	Kd [5] [µM]
CN[C@@H]1[C@@H](O[C@H]2O[C@H](CO)[C@@H](N)[C@H](O)[C@H]2O)O[C@H]2C[C@@H](N)[C@@H](O[C@H]3[C@H](O)[C@@H](O)[C@H](N)C[C@@H]3N)O[C@@H]2[C@@H]1O	23 ± 12	22 ± 12	–	–	–
NCC[C@H](O)C(=O)N[C@@H]1C[C@H](N)[C@@H](O[C@H]2O[C@H](CN)[C@@H](O)[C@H](O)[C@H]2O)[C@H](O)[C@H]1O[C@H]1O[C@H](CO)[C@@H](O)[C@H](N)[C@H]1O	14 ± 3	15 ± 4	–	–	–
NC[C@@H]1O[C@H](O[C@H]2[C@@H](O)[C@H](O[C@@H]3[C@@H](O)[C@H](N)C[C@H](N)[C@H]3O[C@H]3O[C@H](CN)[C@@H](O)[C@H](O)[C@H]3N)O[C@@H]2CO)[C@H](N)[C@@H](O)[C@@H]1O	2.7 ± 1.7	3.9 ± 2.8	0.045	0.042	5.2 ± 0.8
NC[C@H]1O[C@H](O[C@H]2[C@H](O)[C@@H](O[C@H]3O[C@H](CO)[C@@H](O)[C@H](N)[C@H]3O)[C@H](N)C[C@@H]2N)[C@H](O)[C@@H](O)[C@@H]1O	45 ± 23	44 ± 18	–	–	–
NC[C@H]1O[C@H](O[C@H]2[C@H](O[C@@H]3O[C@H](CO)[C@@H](O)[C@H]3O)[C@@H](O)[C@H](N)C[C@@H]2N)[C@H](N)[C@@H](O)[C@@H]1O	78 ± 67	90 ± 73	–	–	–
